In general, IC50 refers to the midpoint of a concentration-inhibition curve.

The test concerns the target HSP90 (Homo sapiens, UniProt P07900). The test can be described thus: HSP90 inhibition (HSP90 IC50). Format: biochemical.
`COc1cccc(C(=O)NC2CC3CCC(C2)N3c2ccc(C(=O)NC(C)c3ccc(N4CCNCC4)nc3)cn2)c1C` (stereo not drawn) [6-[3-endo-({[2-methyl-3-(methyloxy)phenyl]carbonyl}amino)-8-azabicyclo[3.2.1]oct-8-yl]-N-[1-(6-piperazin-1-ylpyridin-3-yl)ethyl]pyridine-3-carboxamide] returned an IC50 of less than 500 nM.

The molecule `COc1cccc(C(=O)N[C@H]2C[C@H]3CC[C@@H](C2)N3c2ccc(C(=O)NC3CCN(Cc4ccccc4)CC3)cn2)c1C` [6-[3-endo-({[2-methyl-3-(methyloxy)phenyl]carbonyl}amino)-8-azabicyclo[3.2.1]oct-8-yl]-N-[1-(phenylmethyl)piperidin-4-yl]pyridine-3-carboxamide] had a half-maximal inhibitory concentration (IC50) of less than 500 nM.

Take `COc1cccc(C(=O)NC2CC3CCC(C2)N3c2ccc(C(=O)NCCC3CCCN3C)cn2)c1C` (stereo not drawn) [6-[3-endo-({[2-methyl-3-(methyloxy)phenyl]carbonyl}amino)-8-azabicyclo[3.2.1]oct-8-yl]-N-[2-(1-methylpyrrolidin-2-yl)ethyl]pyridine-3-carboxamide]: the half-inhibitory concentration (IC50) was in the range of 500 to 999 nM.

As for `COCCNC(=O)c1ccc(N2[C@@H]3CC[C@H]2C[C@@H](NC(=O)c2cccc(OC)c2C)C3)nc1` [6-[3-endo-({[2-methyl-3-(methyloxy)phenyl]carbonyl}amino)-8-azabicyclo[3.2.1]oct-8-yl]-N-[2-(methyloxy)ethyl]pyridine-3-carboxamide], the 50% inhibitory concentration (IC50) was in the range of 2000 to 10000 nM.

Consider `COc1ccccc1NC(=O)c1ccc(N2[C@@H]3CC[C@H]2C[C@@H](NC(=O)c2cccc(OC)c2C)C3)nc1` [6-[3-endo-({[2-methyl-3-(methyloxy)phenyl]carbonyl}amino)-8-azabicyclo[3.2.1]oct-8-yl]-N-[2-(methyloxy)phenyl]pyridine-3-carboxamide], for which the concentration for half-maximal inhibition (IC50) fell in the range of 2000 to 10000 nM.

Molecule `COc1cccc(C(=O)N[C@H]2C[C@H]3CC[C@@H](C2)N3c2ccc(C(=O)NCCSC)cn2)c1C` [6-[3-endo-({[2-methyl-3-(methyloxy)phenyl]carbonyl}amino)-8-azabicyclo[3.2.1]oct-8-yl]-N-[2-(methylthio)ethyl]pyridine-3-carboxamide] displayed a 50% inhibitory concentration (IC50) of 1000 to 2000 nM.

`COc1cccc(C(=O)N[C@H]2C[C@H]3CC[C@@H](C2)N3c2ccc(C(=O)NCCCN3CCCC3=O)cn2)c1C` [6-[3-endo-({[2-methyl-3-(methyloxy)phenyl]carbonyl}amino)-8-azabicyclo[3.2.1]oct-8-yl]-N-[3-(2-oxopyrrolidin-1-yl)propyl]pyridine-3-carboxamide]: the IC50 is 500 to 999 nM.

`COc1cccc(C(=O)N[C@H]2C[C@H]3CC[C@@H](C2)N3c2ccc(C(=O)NCCCN3CCN(C)CC3)cn2)c1C` [6-[3-endo-({[2-methyl-3-(methyloxy)phenyl]carbonyl}amino)-8-azabicyclo[3.2.1]oct-8-yl]-N-[3-(4-methylpiperazin-1-yl)propyl]pyridine-3-carboxamide] gave an IC50 of 500 to 999 nM.

As for `COc1cccc(NC(=O)c2ccc(N3[C@@H]4CC[C@H]3C[C@@H](NC(=O)c3cccc(OC)c3C)C4)nc2)c1` [6-[3-endo-({[2-methyl-3-(methyloxy)phenyl]carbonyl}amino)-8-azabicyclo[3.2.1]oct-8-yl]-N-[3-(methyloxy)phenyl]pyridine-3-carboxamide], the 50% inhibitory concentration (IC50) is 2000 to 10000 nM.

Take `COCCCNC(=O)c1ccc(N2[C@@H]3CC[C@H]2C[C@@H](NC(=O)c2cccc(OC)c2C)C3)nc1` [6-[3-endo-({[2-methyl-3-(methyloxy)phenyl]carbonyl}amino)-8-azabicyclo[3.2.1]oct-8-yl]-N-[3-(methyloxy)propyl]pyridine-3-carboxamide]: the half-maximal inhibitory concentration (IC50) lay in the range of 500 to 999 nM.

Molecule `CCCOCCCNC(=O)c1ccc(N2[C@@H]3CC[C@H]2C[C@@H](NC(=O)c2cccc(OC)c2C)C3)nc1` [6-[3-endo-({[2-methyl-3-(methyloxy)phenyl]carbonyl}amino)-8-azabicyclo[3.2.1]oct-8-yl]-N-[3-endo-(propyloxy)propyl]pyridine-3-carboxamide] registered a 50% inhibitory concentration (IC50) of 500 to 999 nM.

On to `COc1cccc(C(=O)N[C@H]2C[C@H]3CC[C@@H](C2)N3c2ccc(C(=O)Nc3ccc(C4CCN(C)CC4)cc3)cn2)c1C` [6-[3-endo-({[2-methyl-3-(methyloxy)phenyl]carbonyl}amino)-8-azabicyclo[3.2.1]oct-8-yl]-N-[4-(1-methylpiperidin-4-yl)phenyl]pyridine-3-carboxamide], for which the half-inhibitory concentration (IC50) lay within 1000 to 2000 nM.

`COc1cccc(C(=O)N[C@H]2C[C@H]3CC[C@@H](C2)N3c2ccc(C(=O)Nc3ccc(N4CCN(C)CC4)cc3)cn2)c1C` [6-[3-endo-({[2-methyl-3-(methyloxy)phenyl]carbonyl}amino)-8-azabicyclo[3.2.1]oct-8-yl]-N-[4-(4-methylpiperazin-1-yl)phenyl]pyridine-3-carboxamide] had a half-maximal inhibitory concentration (IC50) of less than 500 nM.

With `COc1ccc(NC(=O)c2ccc(N3[C@@H]4CC[C@H]3C[C@@H](NC(=O)c3cccc(OC)c3C)C4)nc2)cc1` [6-[3-endo-({[2-methyl-3-(methyloxy)phenyl]carbonyl}amino)-8-azabicyclo[3.2.1]oct-8-yl]-N-[4-(methyloxy)phenyl]pyridine-3-carboxamide], the IC50 fell in the range of 500 to 999 nM.

As for `COc1cccc(C(=O)NC2CC3CCC(C2)N3c2ccc(C(=O)N[C@H](C)c3ccccc3)cn2)c1C` (stereo partly drawn) [6-[3-endo-({[2-methyl-3-(methyloxy)phenyl]carbonyl}amino)-8-azabicyclo[3.2.1]oct-8-yl]-N-[(1R)-1-phenylethyl]pyridine-3-carboxamide], the concentration for half-maximal inhibition (IC50) lay in the range of 2000 to 10000 nM.

Regarding `CC[C@H](C)NC(=O)c1ccc(N2C3CCC2CC(NC(=O)c2cccc(OC)c2C)C3)nc1` (stereo partly drawn) [6-[3-endo-({[2-methyl-3-(methyloxy)phenyl]carbonyl}amino)-8-azabicyclo[3.2.1]oct-8-yl]-N-[(1S)-1-methylpropyl]pyridine-3-carboxamide], the half-inhibitory concentration (IC50) lay within 2000 to 10000 nM.

Molecule `COc1cccc(C(=O)NC2CC3CCC(C2)N3c2ccc(C(=O)N[C@@H](C)c3ccccc3)cn2)c1C` (stereo partly drawn) [6-[3-endo-({[2-methyl-3-(methyloxy)phenyl]carbonyl}amino)-8-azabicyclo[3.2.1]oct-8-yl]-N-[(1S)-1-phenylethyl]pyridine-3-carboxamide] had a concentration for half-maximal inhibition (IC50) of less than 500 nM.

For `CC[C@H](NC(=O)c1ccc(N2C3CCC2CC(NC(=O)c2cccc(OC)c2C)C3)nc1)c1ccccc1` (stereo partly drawn) [6-[3-endo-({[2-methyl-3-(methyloxy)phenyl]carbonyl}amino)-8-azabicyclo[3.2.1]oct-8-yl]-N-[(1S)-1-phenylpropyl]pyridine-3-carboxamide], the IC50 lay in the range of 500 to 999 nM.

Turning to `COc1cccc(C(=O)N[C@H]2C[C@H]3CC[C@@H](C2)N3c2ccc(C(=O)NCc3c(F)ccc(F)c3F)cn2)c1C` [6-[3-endo-({[2-methyl-3-(methyloxy)phenyl]carbonyl}amino)-8-azabicyclo[3.2.1]oct-8-yl]-N-[(2,3,6-trifluorophenyl)methyl]pyridine-3-carboxamide], the IC50 lay in the range of 500 to 999 nM.

On to `COc1cccc(C(=O)N[C@H]2C[C@H]3CC[C@@H](C2)N3c2ccc(C(=O)NCc3cc(F)c(F)cc3F)cn2)c1C` [6-[3-endo-({[2-methyl-3-(methyloxy)phenyl]carbonyl}amino)-8-azabicyclo[3.2.1]oct-8-yl]-N-[(2,4,5-trifluorophenyl)methyl]pyridine-3-carboxamide], for which the IC50 lay in the range of 500 to 999 nM.

The molecule `COc1cccc(C(=O)N[C@H]2C[C@H]3CC[C@@H](C2)N3c2ccc(C(=O)NCc3c(F)cc(F)cc3F)cn2)c1C` [6-[3-endo-({[2-methyl-3-(methyloxy)phenyl]carbonyl}amino)-8-azabicyclo[3.2.1]oct-8-yl]-N-[(2,4,6-trifluorophenyl)methyl]pyridine-3-carboxamide] displayed a 50% inhibitory concentration (IC50) of less than 500 nM.

In turn, `COc1cccc(C(=O)N[C@H]2C[C@H]3CC[C@@H](C2)N3c2ccc(C(=O)NCc3ccccc3C)cn2)c1C` [6-[3-endo-({[2-methyl-3-(methyloxy)phenyl]carbonyl}amino)-8-azabicyclo[3.2.1]oct-8-yl]-N-[(2-methylphenyl)methyl]pyridine-3-carboxamide] registered a half-inhibitory concentration (IC50) of less than 500 nM.

On to `COc1cccc(C(=O)N[C@H]2C[C@H]3CC[C@@H](C2)N3c2ccc(C(=O)NCc3cccc(C)c3)cn2)c1C` [6-[3-endo-({[2-methyl-3-(methyloxy)phenyl]carbonyl}amino)-8-azabicyclo[3.2.1]oct-8-yl]-N-[(3-methylphenyl)methyl]pyridine-3-carboxamide], for which the IC50 lay in the range of 2000 to 10000 nM.

The molecule `COc1cccc(C(=O)NC2CC3CCC(C2)N3c2ccc(C(=O)N[C@@H]3CCN(Cc4ccccc4)C3)cn2)c1C` (stereo partly drawn) [6-[3-endo-({[2-methyl-3-(methyloxy)phenyl]carbonyl}amino)-8-azabicyclo[3.2.1]oct-8-yl]-N-[(3R)-1-(phenylmethyl)pyrrolidin-3-yl]pyridine-3-carboxamide] registered a 50% inhibitory concentration (IC50) of less than 500 nM.

For the molecule `COc1cccc(C(=O)NC2CC3CCC(C2)N3c2ccc(C(=O)N[C@@H]3CCN(C)C3)cn2)c1C` (stereo partly drawn) [6-[3-endo-({[2-methyl-3-(methyloxy)phenyl]carbonyl}amino)-8-azabicyclo[3.2.1]oct-8-yl]-N-[(3R)-1-methylpyrrolidin-3-yl]pyridine-3-carboxamide], the IC50 is less than 500 nM.

On to `COc1cccc(C(=O)NC2CC3CCC(C2)N3c2ccc(C(=O)N[C@@H]3CCNC3)cn2)c1C` (stereo partly drawn) [6-[3-endo-({[2-methyl-3-(methyloxy)phenyl]carbonyl}amino)-8-azabicyclo[3.2.1]oct-8-yl]-N-[(3R)-pyrrolidin-3-yl]pyridine-3-carboxamide], for which the IC50 was in the range of 500 to 999 nM.

In turn, `COc1cccc(C(=O)NC2CC3CCC(C2)N3c2ccc(C(=O)N[C@H]3CCN(Cc4ccccc4)C3)cn2)c1C` (stereo partly drawn) [6-[3-endo-({[2-methyl-3-(methyloxy)phenyl]carbonyl}amino)-8-azabicyclo[3.2.1]oct-8-yl]-N-[(3S)-1-(phenylmethyl)pyrrolidin-3-yl]pyridine-3-carboxamide] displayed a 50% inhibitory concentration (IC50) of 500 to 999 nM.

Consider `COc1cccc(C(=O)NC2CC3CCC(C2)N3c2ccc(C(=O)N[C@H]3CCN(C)C3)cn2)c1C` (stereo partly drawn) [6-[3-endo-({[2-methyl-3-(methyloxy)phenyl]carbonyl}amino)-8-azabicyclo[3.2.1]oct-8-yl]-N-[(3S)-1-methylpyrrolidin-3-yl]pyridine-3-carboxamide], for which the IC50 fell in the range of 1000 to 2000 nM.

The values above are taken from US8012956B2, “Tropane compounds” (Exelixis, Inc., priority 2007, dated 2011).
